Measurements: ChEMBL document CHEMBL1201862, “PubChem BioAssay data set” (2004)
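Grown in 96-well plates, cells were treated for 48 hours with each compound at five concentrations. Insufficient inhibition: endpoint recorded as highest concentration tested. GI50 is the concentration that inhibits growth by half.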 The source made the active and inactive calls. Rule as the data show it: active = GI50 up to about 1.1 µM and inactive = higher.

Experiments:
Assay in all cases: NCI anticancer screen, dose series, 48 h
SK-OV-3 = tested on: SK-OV-3
MOLT-4 = tested on: MOLT-4
SR = tested on: SR
CAKI-1 = tested on: CAKI-1
COLO 205 = tested on: COLO 205
T47D = tested on: T47D
SF-539 = tested on: SF-539
NCI-H460 = tested on: NCI-H460
SK-MEL-5 = tested on: SK-MEL-5
786-0 = tested on: 786-0
MDA-N = tested on: MDA-N
UACC-62 = tested on: UACC-62
M14 = tested on: M14
TK-10 = tested on: TK-10
HCT-15 = tested on: HCT-15
RXF 393 = tested on: RXF 393
KM12 = tested on: KM12
EKVX = tested on: EKVX
UACC-257 = tested on: UACC-257
SN12C = tested on: SN12C
SW-620 = tested on: SW-620
CCRF-CEM = tested on: CCRF-CEM
SK-MEL-2 = tested on: SK-MEL-2
HCT-116 = tested on: HCT-116
K562 = tested on: K562
BT-549 = tested on: BT-549
SF-268 = tested on: SF-268
NCI-H226 = tested on: NCI-H226
OVCAR-8 = tested on: OVCAR-8
SNB-19 = tested on: SNB-19
MDA-MB-435 = tested on: MDA-MB-435
HOP-92 = tested on: HOP-92
A498 = tested on: A498
HL-60 = tested on: HL-60
PC-3 = tested on: PC-3
SNB-75 = tested on: SNB-75
U-251 = tested on: U-251
SK-MEL-28 = tested on: SK-MEL-28
IGROV-1 = tested on: IGROV-1
Malme-3M = tested on: Malme-3M
A549 = tested on: A549
NCI/ADR-RES = tested on: NCI/ADR-RES
SF-295 = tested on: SF-295
DU-145 = tested on: DU-145
ACHN = tested on: ACHN
OVCAR-4 = tested on: OVCAR-4
UO-31 = tested on: UO-31
OVCAR-5 = tested on: OVCAR-5
RPMI-8226 = tested on: RPMI-8226
MDA-MB-231 = tested on: MDA-MB-231
OVCAR-3 = tested on: OVCAR-3
Hs-578T = tested on: Hs-578T
NCI-H23 = tested on: NCI-H23
MCF7 = tested on: MCF7
HOP-62 = tested on: HOP-62
HCC 2998 = tested on: HCC 2998
NCI-H522 = tested on: NCI-H522
HT-29 = tested on: HT-29
LOX IMVI = tested on: LOX IMVI

## O=C1/C(=C/c2cccnc2)C(n2cccc2)c2c(Br)sc(Br)c21 (centres undefined)
SK-OV-3
  GI50: 15.8 µM (inactive)
MOLT-4
  GI50: 2.19 µM (inactive)
SR
  GI50: 1.81 µM (inactive)
CAKI-1
  GI50: 2.59 µM (inactive)
COLO 205
  GI50: 6.64 µM (inactive)
T47D
  GI50: 2.82 µM (inactive)
SF-539
  GI50: 4.26 µM (inactive)
NCI-H460
  GI50: 4.16 µM (inactive)
SK-MEL-5
  GI50: 7.18 µM (inactive)
786-0
  GI50: 2.55 µM (inactive)
MDA-N
  GI50: 2.05 µM (inactive)
UACC-62
  GI50: 2 µM (inactive)
M14
  GI50: 2.15 µM (inactive)
TK-10
  GI50: 1.69 µM (inactive)
HCT-15
  GI50: 2.02 µM
RXF 393
  GI50: 2.4 µM (inactive)
KM12
  GI50: 3.43 µM (inactive)
EKVX
  GI50: 2 µM (inactive)
UACC-257
  GI50: 1.72 µM (inactive)
SN12C
  GI50: 3.94 µM (inactive)
SW-620
  GI50: 2.32 µM (inactive)
CCRF-CEM
  GI50: 1.93 µM (inactive)
SK-MEL-2
  GI50: 2.26 µM (inactive)
HCT-116
  GI50: 2.26 µM (inactive)
K562
  GI50: 2.17 µM (inactive)
BT-549
  GI50: 9.57 µM (inactive)
SF-268
  GI50: 2.13 µM (inactive)
NCI-H226
  GI50: 41.3 µM (inactive)
OVCAR-8
  GI50: 2.1 µM (inactive)
SNB-19
  GI50: 4.7 µM (inactive)
MDA-MB-435
  GI50: 1.73 µM (inactive)
HOP-92
  GI50: 2.01 µM (inactive)
A498
  GI50: 16.6 µM (inactive)
HL-60
  GI50: 1.83 µM (inactive)
PC-3
  GI50: 2.14 µM (inactive)
SNB-75
  GI50: 2 µM (inactive)
U-251
  GI50: 1.7 µM (inactive)
SK-MEL-28
  GI50: 2.53 µM (inactive)
IGROV-1
  GI50: 1.58 µM (inactive)
Malme-3M
  GI50: 3.01 µM (inactive)
A549
  GI50: 15.6 µM (inactive)
NCI/ADR-RES
  GI50: 7.43 µM (inactive)
SF-295
  GI50: 15.2 µM (inactive)
DU-145
  GI50: 1.94 µM (inactive)
ACHN
  GI50: 3.28 µM (inactive)
OVCAR-4
  GI50: 2.07 µM (inactive)
UO-31
  GI50: 1.78 µM (inactive)
OVCAR-5
  GI50: 15 µM (inactive)
RPMI-8226
  GI50: 1.95 µM (inactive)
MDA-MB-231
  GI50: 1.8 µM (inactive)
OVCAR-3
  GI50: 1.92 µM (inactive)
Hs-578T
  GI50: 2.94 µM (inactive)
NCI-H23
  GI50: 2.52 µM (inactive)
MCF7
  GI50: 1.8 µM (inactive)
HOP-62
  GI50: 2.73 µM (inactive)
HCC 2998
  GI50: 0.916 µM (active)
NCI-H522
  GI50: 6.07 µM (inactive)
HT-29
  GI50: 2.79 µM (inactive)
LOX IMVI
  GI50: 1.93 µM (inactive)
